Experiment [1] deals with disease animal model of fibromyalgia. The experiment in a line: Antagonism by 5-HT2C receptor antagonist SB242084 of the action of lorcaserin on reserpine-lowered muscle tenderness threshold. The format is in vivo, Sprague-Dawley rats.
Experimental: Thirty male Sprague-Dawley rats (Japan SLC) were used. […] The other 6 rats were not administered with reserpine and provided for the experiment as a healthy control. The drug efficacy was evaluated 5 days after the final administration of reserpine.
Twenty four reserpine-administered rats were divided into four groups (n=6/group), and the drug was administered to the respective groups in the following manner.
Group 1: 10% β cyclodextrin (vehicle of SB242084)+distilled water (vehicle of lorcaserin)
Group 2: 10% β cyclodextrin+lorcaserin at 3 mg/kg
Group 3: SB242084 at 0.1 mg/kg+lorcaserin at 3 mg/kg
Group 4: SB242084 at 1 mg/kg+lorcaserin at 3 mg/kg SB242084 or the vehicle thereof was administered by intraperitoneal administration, and lorcaserin or the vehicle thereof was orally administered. […] The muscle tenderness threshold was measured 60 minutes after lorcaserin or the vehicle thereof was administered. For the 6 healthy rats, only the muscle tenderness threshold was measured without administering the drug.
All measured values were indicated as an average±standard error. […] A significance level (P) less than 5% was determined as statistical significance (P<0.001 was indicated as ### in the drawing). […] A significance level (P) less than 5% was determined as statistical significance (P<0.001 was indicated as *** in the drawing).
Experiment [2] relates to patients with fibromyalgia. The note with it: cited from earlier work; for effectiveness for treating patients with fibromyalgia: literature (Yunus 1989; Goldenberg 1986); for score of pain symptoms of patients with fibromyalgia compared to a placebo group: Non-Patent Documents 7 to 9.
Experiment [3] relates to disease animal model of fibromyalgia. The experiment can be described thus: Effect of test drug on lowering of muscle tenderness threshold induced by repeated reserpine administration. The format is in vivo, Sprague-Dawley rats. The note with it: for effect on the lowering of the muscle tenderness threshold induced by reserpine: male rats; for statistical significance of the effect on muscle tenderness threshold vs vehicle: two way ANOVA and Bonferroni. Here is the method:
(§1) The muscle tenderness threshold was measured according to the method of Schafers et al (Schafers M et al, Pain, 104, 579-588, 2003). A pressure stimulus gradually increasing up to 250 g was applied to the gastrocnemius of the right rear foot of the rat. […] The measurement was performed for three times for each point in time, and the average thereof was taken as a measured value. The cutaneous nociception threshold was measured according to the method of Chaplan et al (Chaplan et al., J Neurosci Methods, 53, 55-63, 1994). The measurement was performed using a series of von Frey filaments differing in thickness, which made it possible to apply a constant pressure. The rats were adapted to a cage for measurement having a wire mesh bottom, and then von Frey filaments (0.42 g, 0.74 g, 1.2 g, 2.1 g, 3.5 g, 6.0 g, 9.3 g, and 15.8 g) were applied to the plantar surface of a right rear foot of the rat until the withdrawal response was caused in the right rear foot or until 6 seconds elapsed without the response. The von Frey filament was applied using an up and down method. That is, a filament having about a medium thickness was applied initially, and when the withdrawal response was observed, a filament having a thickness which is one level lower than the initial filament was applied, and when the response was not observed, a filament having a thickness which is one level higher than the initial filament was applied. The cutaneous nociception threshold at the respective points in time was calculated as a threshold (g) of a foot withdrawal response by using a calculation formula reported by Chaplan et al (Chaplan et al. described above). The influence of reserpine on the muscle tenderness threshold and the threshold of cutaneous nociception was examined according to the following protocol. 24 rats were used for male and female rats respectively. The muscle tenderness threshold and the cutaneous nociception threshold before the reserpine administration (base line) were measured, and then the rats were assigned to any of a vehicle (0.5% aqueous acetic acid) group, a 0.1 mg/kg reserpine group, a 0.3 mg/kg group, and a 1 mg/kg group based on the dose of reserpine (6 rats per group). A vehicle or reserpine was subcutaneously administered to the back of rats of the respective groups once a day for three days. The volume of the vehicle or reserpine was set to 1 ml per a weight of a rat of 1 kg for all groups. On the first, third, fifth, seventh, tenth, fourteenth, and twenty-first days after the final administration of the vehicle or reserpine, the muscle tenderness threshold and the cutaneous nociception threshold were measured for the respective rats.
Male Sprague-Dawley rats (Japan SLC, Hamamatsu, Japan) were used. Thirty rats were used for each drug. As shown in Reference Example 1, reserpine was repeatedly administered at 1 mg/kg once a day for 3 days for 24 rats, thereby causing the lowering of the muscle tenderness threshold and the cutaneous nociception threshold. The other 6 rats were not administered with reserpine and provided for the experiment as a healthy control.
The drug efficacy was evaluated 5 days after the final administration of reserpine for all groups.
In evaluating the respective test drugs (5-HT2C receptor agonists), the muscle tenderness threshold of the rats (24 reserpine-administered rats and 6 healthy rats) before the administration of the test drug was initially measured. The 24 reserpine-administered rats were assigned to 4 groups according to the dose of the test drug. For YM348 or a vehicle thereof, the muscle tenderness threshold was measured 30, 60, and 120 minutes after the administration. For lorcaserin or a vehicle thereof, the muscle tenderness threshold was measured 60, 120, and 240 minutes after the administration. For vabicaserin or a vehicle thereof, the muscle tenderness threshold was measured 30, 60, 120, and 240 minutes after the administration. […]

Experiment [4] has the same test system. The experiment in a line: Effect of drug on reserpine-induced lowering of cutaneous nociception threshold. The format is in vivo, Sprague-Dawley rats. The note with it: 5 days after final reserpine; up to a dose of 10 mg/kg.
Experimental: The cutaneous nociception threshold was measured according to the method of Chaplan et al (Chaplan et al., J Neurosci Methods, 53, 55-63, 1994). The measurement was performed using a series of von Frey filaments differing in thickness, which made it possible to apply a constant pressure. The rats were adapted to a cage for measurement having a wire mesh bottom, and then von Frey filaments (0.42 g, 0.74 g, 1.2 g, 2.1 g, 3.5 g, 6.0 g, 9.3 g, and 15.8 g) were applied to the plantar surface of a right rear foot of the rat until the withdrawal response was caused in the right rear foot or until 6 seconds elapsed without the response. The von Frey filament was applied using an up and down method. […] The cutaneous nociception threshold at the respective points in time was calculated as a threshold (g) of a foot withdrawal response by using a calculation formula reported by Chaplan et al (Chaplan et al. described above).
In addition, 5 days after the final administration of reserpine, the effect of diclofenac which is a non-steroidal anti-inflammatory drug on the reserpine-induced lowering of the muscle tenderness threshold and the lowering of cutaneous nociception threshold was measured.
The subject of the next experiment is Male Sprague-Dawley rats. The experiment can be described thus: Forced swimming test after repeated reserpine administration (immobility time). The note with it: 1 mg/kg s.c. once a day for 3 days. The format is in vivo. Here is the method:
Male Sprague-Dawley rats (7-week old, Japan SLC, Hamamatsu, Japan) were used as animals. A forced swimming test was performed by modifying the method of Porsolt (1977) et al in the following manner. Soft wires including a magnet (a diameter of 1 mm and a length of 3 mm) were mounted on both the forelimbs of the animal, and the animals were caused to swim one by one in a cylindrical plastic water tank (a diameter of 20 cm and a height of 45 cm) filled with water (24±1° C.) up to 30 cm depth. […] Each forced swimming test includes a pretest session (15 minutes of swimming) and a test session (5 minutes of swimming) 24 hours after the pretest session, and the immobility time was measured in the test session. […] All of the measured values were indicated as an average±standard error. The statistical significant difference in the measured value at the respective test schedules between the reserpine-administered group and the vehicle-administered group was verified by a Student's t-test. A significance level (P) less than 5% was determined as statistical significance (P<0.05 was indicated as * in the drawings).

For experiment [5], the system named is Male and female Sprague-Dawley rats. The experiment in a line: Influence of repeated reserpine administration on cutaneous nociception threshold (von Frey). The format is in vivo. The note with it: for time after final administration for which cutaneous nociception threshold was statistically significantly lower than vehicle: 1 mg/kg group. On the procedure: (§2) Male and female Sprague-Dawley rats (Japan SLC, Hamamatsu, Japan) were used.
as §1, with “The influence of reserpine on the muscle tenderness threshold and the threshold of cutaneous nociception was examined according to the following protocol. 24 rats were used for male and female rats respectively.” left out, “A vehicle or reserpine was subcutaneously administered to the back of rats of the respective groups once a day for three days. The volume of the vehicle or reserpine was set to 1 ml per a weight of a rat of 1 kg for all groups.” left out
(§3) All measured values were indicated as an average±standard error. The statistical significant difference in the measured value at the respective points in time between the reserpine-administered group and the vehicle-administered group was verified by two way ANOVA and a Bonferroni method. A significance level (P) less than 5% was determined as statistical significance (P<0.05 was indicated as * in the drawings).

For experiment [6] the test system is unchanged. The experiment in a line: Influence of repeated reserpine administration on muscle tenderness threshold. The format is in vivo. The note with it: for time after final administration for which muscle tenderness threshold was statistically significantly lower than vehicle: 1 mg/kg group. Here is the method: as §2
as §1, with “The influence of reserpine on the muscle tenderness threshold and the threshold of cutaneous nociception was examined according to the following protocol. 24 rats were used for male and female rats respectively.” left out, “A vehicle or reserpine was subcutaneously administered to the back of rats of the respective groups once a day for three days. The volume of the vehicle or reserpine was set to 1 ml per a weight of a rat of 1 kg for all groups.” left out
as §3

Setting [7] is: 0.1, 0.3, 1 mg/kg s.c. once a day for three days, male and female rats, two way ANOVA.

Take `Cc1cc2c(cc1Cl)N(C(=O)Nc1ccc(Oc3cccnc3C)nc1)CC2` [SB242084]: in experiment [1] (SB242084 0.1 and 1 mg/kg i.p. 15 min before lorcaserin 3 mg/kg oral, 60 min, Dunnett's test), the “antagonistic action against the action of lorcaserin on muscle tenderness threshold” value is “statistically significant antagonistic action in a dose dependent manner”.

As for `CC(C)Cc1ccc(C(C)C(=O)O)cc1` (stereo not drawn) [ibuprofen], the “effectiveness for treating patients with fibromyalgia” value in experiment [2] is reported as “not significantly effective”.

In the case of `CNCC[C@H](Oc1cccc2ccccc12)c1cccs1` [duloxetine], in experiment [2], the “score of pain symptoms of patients with fibromyalgia compared to a placebo group” value is “statistically significantly reduces the score of pain symptoms”.

In the case of `CCc1cc2c(ccc3cnn(C[C@H](C)N)c32)o1` [YM348, (S)-2-(7-ethyl-1H-furo[2,3-g]indazol-1-yl)-1-methylethylamine], in experiment [3] (5 days after final reserpine (1 mg/kg s.c. x3 days), oral 0.03, 0.1, 0.3 mg/kg, 30, 60, 120 min after administration), the “effect on the lowering of the muscle tenderness threshold induced by reserpine” value is “restored the lowering of the muscle tenderness threshold induced by reserpine in a dose dependent manner”. Further, the “statistical significance of the effect on muscle tenderness threshold vs vehicle” value (“statistical significance … vs vehicle” for short) in experiment [3] (oral, at a dose of 0.1 mg/kg or 0.3 mg/kg) was “statistically significant”.

With `O=C(O)Cc1ccccc1Nc1c(Cl)cccc1Cl` [diclofenac], the “effect on the reserpine-induced lowering of cutaneous nociception threshold” value in experiment [4] is “not restored”. In addition, the “effect on the reserpine-induced lowering of the muscle tenderness threshold” value in experiment [3] (5 days after final reserpine, up to a dose of 10 mg/kg) is “not restored”.

`C[C@H]1CNCCc2ccc(Cl)cc21.Cl` [lorcaserin, (1R)-8-chloro-1-methyl-2,3,4,5-tetrahydro-1H-3-benzazepine]: in experiment [1] (lorcaserin 3 mg/kg oral + 10% β cyclodextrin i.p., 60 min after administration, Student's t-test), the “effect on the lowering of the muscle tenderness threshold induced by reserpine vs vehicle group (v+v)” value was “statistically significantly restored the lowering of the muscle tenderness threshold induced by reserpine”. Further, the “effect on the lowering of the muscle tenderness threshold induced by reserpine” value in experiment [3] (5 days after final reserpine, oral 0.3, 1, 3 mg/kg, 60, 120, 240 min after administration) was “restored the lowering of the muscle tenderness threshold induced by reserpine in a dose dependent manner”. The “statistical significance … vs vehicle” value in experiment [3] (oral, at a dose of 1 mg/kg or 3 mg/kg) is “statistically significant”.

Consider `COc1ccc2cc([C@H](C)C(=O)O)ccc2c1` [naproxen], for which, in experiment [2], the “effectiveness for treating patients with fibromyalgia” value is reported as “not significantly effective”.

As for `COC(=O)[C@H]1[C@H]2C[C@@H]3c4[nH]c5cc(OC)ccc5c4CCN3C[C@H]2C[C@@H](OC(=O)c2cc(OC)c(OC)c(OC)c2)[C@@H]1OC` [reserpine], the “increase in the immobility time in forced swimming test” value in the experiment on Male Sprague-Dawley rats (first day after final administration (P=0.625)) was “not confirmed”; with Male Sprague-Dawley rats (third, fifth, seventh and fourteenth days after final administration (P=0.0007, 0.004, <0.0001, 0.0008)), “significant increase in the immobility time”. The “time after final administration for which cutaneous nociception threshold was statistically significantly lower than vehicle” value in experiment [5] (female rats) was 14 days; in experiment [5] (male rats), 21 days. The “influence on cutaneous nociception threshold” value in experiment [5] (1 mg/kg reserpine group) is “markedly lowered”; in experiment [5] (setting [7]), “significantly lowered the cutaneous nociception threshold”. Besides, the “time after final administration for which muscle tenderness threshold was statistically significantly lower than vehicle” value amounted to 7 days in experiment [6] (female rats) and 10 days in experiment [6] (male rats). The “influence on muscle tenderness threshold” value is recorded as “markedly lowered” in experiment [6] (1 mg/kg reserpine group) and “significantly lowered the muscle tenderness threshold” in experiment [6] (setting [7]).

For the molecule `Cl.c1cc2c3c(c1)[C@H]1CCC[C@H]1CN3CCNC2` [vabicaserin, (−)-(9aR,12aS)-4,5,6,7,9,9a,10,11,12,12a-decahydrocyclopenta[c][1,4]diazepino[6,7,1-ij]quinoline], the “statistical significance … vs vehicle” value in experiment [3] (dorsal subcutaneous, at a dose of 1 mg/kg or 3 mg/kg) is “statistically significant”. The “effect on the lowering of the muscle tenderness threshold induced by reserpine” value in experiment [3] (5 days after final reserpine, dorsal subcutaneous 0.3, 1, 3 mg/kg, 30, 60, 120, 240 min after administration) was “restored the lowering of the muscle tenderness threshold induced by reserpine in a dose dependent manner”.

With `CC(C)C[C@H](CN)CC(=O)O` [pregabalin], the “score of pain symptoms of patients with fibromyalgia compared to a placebo group” value in experiment [2] is “statistically significantly reduces the score of pain symptoms”.

The record behind these values is patent publication US20120253036A1, “AGENT FOR TREATING FIBROMYALGIA” (priority 2009, published 2012).
